One test addresses T1, hTMEM16A (abc) (Homo sapiens, UniProt Q5XXA6, DEL476-501).
T1 sequence (Q5XXA6 with tags, fused parts or gaps isoform Q5XXA6-5 DEL539-564): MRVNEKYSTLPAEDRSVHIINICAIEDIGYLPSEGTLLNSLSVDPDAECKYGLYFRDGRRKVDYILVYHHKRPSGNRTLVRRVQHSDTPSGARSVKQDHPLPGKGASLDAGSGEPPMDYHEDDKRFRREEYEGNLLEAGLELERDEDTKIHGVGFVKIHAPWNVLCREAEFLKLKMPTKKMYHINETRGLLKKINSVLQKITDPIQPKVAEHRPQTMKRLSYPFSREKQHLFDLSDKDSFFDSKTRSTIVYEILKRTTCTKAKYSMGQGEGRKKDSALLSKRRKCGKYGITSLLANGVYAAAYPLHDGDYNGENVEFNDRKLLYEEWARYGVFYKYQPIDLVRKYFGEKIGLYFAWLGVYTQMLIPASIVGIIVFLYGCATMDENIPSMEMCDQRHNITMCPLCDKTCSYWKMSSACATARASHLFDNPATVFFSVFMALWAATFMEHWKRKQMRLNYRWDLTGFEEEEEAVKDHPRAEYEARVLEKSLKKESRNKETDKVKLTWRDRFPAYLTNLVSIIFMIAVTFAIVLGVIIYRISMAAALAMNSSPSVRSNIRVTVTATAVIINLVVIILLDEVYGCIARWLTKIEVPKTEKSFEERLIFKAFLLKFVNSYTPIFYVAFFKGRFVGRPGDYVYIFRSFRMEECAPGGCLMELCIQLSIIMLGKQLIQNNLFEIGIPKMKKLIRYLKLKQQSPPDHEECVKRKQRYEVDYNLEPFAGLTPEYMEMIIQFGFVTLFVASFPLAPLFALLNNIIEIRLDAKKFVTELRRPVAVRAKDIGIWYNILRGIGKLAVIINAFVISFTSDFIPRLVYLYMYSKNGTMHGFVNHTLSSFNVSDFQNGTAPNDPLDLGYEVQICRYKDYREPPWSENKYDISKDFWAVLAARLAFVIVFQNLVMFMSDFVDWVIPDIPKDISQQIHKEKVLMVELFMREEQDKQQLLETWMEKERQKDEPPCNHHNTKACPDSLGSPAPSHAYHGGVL
The test can be described thus: medchem TMEM16A halide-sensitive YFP assay, 22-point dose-response. It counts as cell-based. The conditions noted are these: supplement; iodide as permeant anion, maximum concentration 55.6; read-out: TMEM16A eYFP Assay IC50. The arrangement: expressed in transfected cells. The protocol: The TMEM16A HEK293T eYFP (H149Q, I153L) stable cell line for medchem support was generated by transfecting 10 μg of linearized hTMEM16A(abc) DNA constructs into HEK293T eYFP (H149Q,I153L) stable cells. The transfected cells were cultured under 200 μg/ml of hygromycin B selection for 20 days and the stable pool was single cell seeded in 96 well plate and duplicated plate were made after single cell clones were formed. YFP function assay were performed on duplicated plate and clones producing higher changes in fluorescence from the YFP assay were chosen for further expansion to form a stable cell line.
Plates were incubated for 24 h at 37°C with 5% CO2. On the assay day, medium was removed and replaced with 20 μl/well of assay buffer (Hank’s Balanced Salt Solution with 10 mM HEPES pH 7.4), 10 μl/well of 40x diluted compounds was added to assay plate and it was incubated at room temperature for 30 min, after which baseline fluorescence was read in the FLIPR instrument for 10 s. Then, 5 μl/well of a 3x trigger solution (24 mM iodide, 3 μM ionomycin in assay buffer) was added and the fluorescence kinetic trace was recorded for 2 min.

The test system of test [1] is Wnt/β-catenin transcription. The conditions noted are these: ref Mook et al. (2015); read-out: Mook et al. Wnt/β-catenin TopFlash (IC50); cited from earlier work.
A further test addresses T2, TMEM16A (acd) (Homo sapiens, UniProt Q5XXA6).
T2 sequence (Q5XXA6 1-986): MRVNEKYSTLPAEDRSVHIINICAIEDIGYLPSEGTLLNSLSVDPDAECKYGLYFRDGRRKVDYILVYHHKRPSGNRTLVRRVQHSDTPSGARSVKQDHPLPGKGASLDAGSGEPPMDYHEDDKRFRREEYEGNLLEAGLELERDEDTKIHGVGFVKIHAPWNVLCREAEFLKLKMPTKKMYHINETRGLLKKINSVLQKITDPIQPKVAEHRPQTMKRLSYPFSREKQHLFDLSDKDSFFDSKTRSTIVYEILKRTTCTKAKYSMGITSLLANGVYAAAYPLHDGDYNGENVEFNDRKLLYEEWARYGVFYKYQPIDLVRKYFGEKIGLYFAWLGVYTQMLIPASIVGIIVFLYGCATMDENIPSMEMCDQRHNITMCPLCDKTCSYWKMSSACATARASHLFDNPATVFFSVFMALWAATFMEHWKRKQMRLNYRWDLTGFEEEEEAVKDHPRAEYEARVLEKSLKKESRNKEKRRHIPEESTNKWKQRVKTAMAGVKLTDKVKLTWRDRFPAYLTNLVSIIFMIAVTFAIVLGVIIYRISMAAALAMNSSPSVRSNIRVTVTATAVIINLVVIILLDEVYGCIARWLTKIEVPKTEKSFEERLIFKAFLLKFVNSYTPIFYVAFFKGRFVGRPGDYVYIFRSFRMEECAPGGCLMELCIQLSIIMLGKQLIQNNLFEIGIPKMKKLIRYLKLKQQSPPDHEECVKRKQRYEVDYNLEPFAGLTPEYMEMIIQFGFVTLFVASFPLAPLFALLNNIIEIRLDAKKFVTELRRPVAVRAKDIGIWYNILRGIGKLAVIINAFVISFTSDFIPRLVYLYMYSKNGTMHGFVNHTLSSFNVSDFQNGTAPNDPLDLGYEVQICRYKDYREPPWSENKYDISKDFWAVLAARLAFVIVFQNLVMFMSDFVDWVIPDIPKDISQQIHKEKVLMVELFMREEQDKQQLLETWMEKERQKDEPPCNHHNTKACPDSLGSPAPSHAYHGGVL
In words: QPatch whole-cell electrophysiology, HEK293 TMEM16A (acd). The conditions noted are these: supplement; 170 nM free intracellular calcium; read-out: IC50 for blocking the TMEM16A outward current, QPatch. It counts as cell-based. From the text: HEK293 cells stably expressing the TMEM16A (acd) variant were purchased from SB Drug Discovery. The HEK293 TMEM16A (abc) stable cell line was from ChanTest and COLO-205 cells were purchased from ATCC. The same standard buffers and recording conditions listed below were used for QPatch studies on all three cell lines.
Recording Solutions: were made weekly as below and stored at room temperature until used. It is recommended not to add ATP to internal solution until immediately before using on the QPatch. The external buffer (in mM) was 140 NaCl, 4 KCl, 2 CaCl2, 1 MgCl2, 10 HEPES, 10 Glucose, pH7.4, while the internal buffer (in mM) was 110 CsCl, 20 TEA-Cl, 5.374 CaCl2, 1.75 MgCl2, 10 EGTA, 10 HEPES, 4 Na2ATP, pH 7.2.
Once established in whole-cell configuration, cells were clamped to a holding potential (Vhold) of 0 mV on 48 well single hole patch plate. A standardized IV protocol was used to elicit ionic current through the TMEM16A chloride channel at 20 s intervals. Steady-state voltage pulses were from −100 mV to +100 mV in +20 mV steps for a duration of 500 ms. After each pulse the voltage was returned to −100 mV for 50 ms to obtain tail currents, and then returned to the holding potential of 0 mV until the beginning of the next sweep. […] This ensures a minimum of 60 s per concentration incubation before measuring current block. Currents were acquired at 10 kHz and filtered at 2 kHz, leak subtraction and Rseries were disabled. A 1 MΩ minimum resistance was set because cells are held in an open channel state and therefore resistance is low.
A cumulative concentration response was measured where each cell is exposed to five concentrations of test article with a dilution factor of 1:5 (e.g., 0.048, 0.24, 1.2, 6, and 30 μM). Cells were recorded for ∼60 s per solution/compound addition. Initially, external solution is applied twice to allow currents to stabilize. Then vehicle (from the saline reservoir) is added twice to monitor any effect 0.3% DMSO might have on currents. This leads directly into the concentration runs by applying Concentration 1 (single addition) for 1 min. Concentration 2 is then applied for the subsequent minute, etc. Recovery/washout was monitored for a final minute with a final external solution addition.
[…] […] Each cell’s current magnitude was then normalized to itself at the initial 0.3% vehicle control period prior to compound application. This step is to account for differences in current size for each cell. Normalized responses to test article were plotted against their concentrations to reveal a concentration-inhibition plot.
A Normalized Group Hill fit was then performed on the plotted results to yield a pooled IC50 value, reconstructed from a minimum of two cells/concentration. The baseline response as well as the full response were constrained to 1 and 0, respectively.
(In general: In patch-clamp work, channel activity is measured electrically.)

Test [2] relates to Wnt/β-catenin transcription. In words: Wnt/β-catenin transcription TOPFlash reporter assay. Format: cell-based. The conditions noted are these: Wnt TopFlash IC50 over TMEM16A eYFP IC50. For orientation: In a reporter assay the amount or activity of a reporter protein is the signal.
The next test has as its system human bronchial rings. The test can be described thus: Wire myograph bronchodilation of histamine pre-contracted human bronchial rings (Biopta). From the text:
Details of bronchodilator studies shown in Figure 5H, 6 and Supplementary Figure 40 are provided below as part of the end assay report on Study CUR011 by Lee Christie (Biopta). Donors with any of the following conditions were excluded from the study: asthma, COPD, emphysema, lung cancer, cystic fibrosis, pulmonary fibrosis, pulmonary hypertension, pneumonia. Donors were also excluded if they had smoked in the past 12 months. Non-transplantable lung tissue was acquired from organ donors post mortem. Any macroscopically diseased/necrotic tissue was rejected. […] Human airway rings were set up under isometric conditions on a wire myograph in order to examine the influence of the test articles on bronchodilation. In order to assess tissue viability, the airways were challenged with carbachol (10 μM) and then isoprenaline (10 μM) to assess their constriction and relaxation responses, respectively. […] Viable airways were pre-constricted with histamine (10 μM), then exposed to one of the following cumulative concentration response curves (CCRCs): positive control, vehicle (water, volume matched to positive control), test article, vehicle (DMSO concentration matched to test articles). At the end of each CCRC, theophylline (2.2 mM) was added to induce maximal relaxation of the tissue. […] Airways were re-tensioned to 1.0 – 1.5 g if the tension had dropped below 1.0 g during the first 30 min of equilibration. (b) Airways were exposed to carbachol (bath concentration 10 μM) in order to measure their contractile responses and then isoprenaline (10 μM) in order to assess their relaxation. Airways were washed out and allowed to return to baseline. (c) Airways were pre-constricted with histamine (10 μM) before conducting a CCRC to the test article, the positive control (isoprenaline), test article vehicle or positive control vehicle.

The next test concerns the target T3, human CFTR (Homo sapiens, UniProt P13569).
T3 construct: host or cells: CHO
The test can be described thus: IonWorks Barracuda electrophysiology, CFTR chloride current in CHO cells. It counts as cell-based. The conditions noted are these: 10 µM compound, CHO CFTR. The text has this:
HEK293 cells stably expressing the human TMEM16A (abc) variant and CHO cells expressing the human CFTR gene were from ChanTest. The IonWorks Barracuda (IWB) procedure and data provided are from outsourced studies performed at ChanTest (Charles River Discovery, Cleveland, OH, United States) who were blinded as to the identity of the test articles or compounds provided by Amgen.
For measuring compound effects on CFTR chloride currents, compounds were serially diluted in HEPES-buffered physiological saline to 2X final concentration allowing for an 8-point dose-response analysis. Test article concentrations were applied to naïve cells (n = 4, where n = the number of replicate wells/concentration) via steel needles, where each application will consist of addition of 20 μl of 2X concentrated test article solution to a final 40 μl volume in the extracellular well of the Population Patch ClampTM (PPC) planar electrode. After mixing (three times), duration of exposure to compound is at least 5 min. Final solutions contain 0.3% DMSO. […] The current is measured using a pulse pattern consisting of a voltage step to +60 mV, 100 ms duration; voltage ramp from +60 to −120 mV, 1000 ms; step to −120 mV, 200 ms; and step to 0 mV, 200 ms; from holding potential, −30 mV. Current amplitudes were measured at the voltage step to 0 mV. The recording procedure was as follows: extracellular buffer is loaded into the PPC plate wells (11 μl per well). Cell suspension was pipetted into the wells (9 μl per well) of the PPC planar electrode. After establishment of a whole-cell configuration via amphotericin patch perforation similar to that described earlier, membrane currents were recorded using the patch clamp amplifier in the IonWorks^TM Barracuda system. Two recordings (scans) were then performed, one scan before and a second scan 5 min after test article (TA) application. […] Data acquisition and analyses were performed using the IonWorks Barracuda^TM system operation software (version 2.0.2). The decrease in current amplitude after test article application was used to calculate the percent block relative to control. […] Inhibition effect was calculated as: % Inhibition = (1 – ITA/IBaseline) × 100%, where IBaseline and ITA were the currents measured in control (before addition of a test article) and in the presence of a test article, respectively.

Consider 10 compounds from paper PMC6382696, “Drug Repurposing: The Anthelmintics Niclosamide and Nitazoxanide Are Potent TMEM16A Antagonists That Fully Bronchodilate Airways” (Frontiers in Pharmacology, 2019).

T3 sequence (P13569 whole entry): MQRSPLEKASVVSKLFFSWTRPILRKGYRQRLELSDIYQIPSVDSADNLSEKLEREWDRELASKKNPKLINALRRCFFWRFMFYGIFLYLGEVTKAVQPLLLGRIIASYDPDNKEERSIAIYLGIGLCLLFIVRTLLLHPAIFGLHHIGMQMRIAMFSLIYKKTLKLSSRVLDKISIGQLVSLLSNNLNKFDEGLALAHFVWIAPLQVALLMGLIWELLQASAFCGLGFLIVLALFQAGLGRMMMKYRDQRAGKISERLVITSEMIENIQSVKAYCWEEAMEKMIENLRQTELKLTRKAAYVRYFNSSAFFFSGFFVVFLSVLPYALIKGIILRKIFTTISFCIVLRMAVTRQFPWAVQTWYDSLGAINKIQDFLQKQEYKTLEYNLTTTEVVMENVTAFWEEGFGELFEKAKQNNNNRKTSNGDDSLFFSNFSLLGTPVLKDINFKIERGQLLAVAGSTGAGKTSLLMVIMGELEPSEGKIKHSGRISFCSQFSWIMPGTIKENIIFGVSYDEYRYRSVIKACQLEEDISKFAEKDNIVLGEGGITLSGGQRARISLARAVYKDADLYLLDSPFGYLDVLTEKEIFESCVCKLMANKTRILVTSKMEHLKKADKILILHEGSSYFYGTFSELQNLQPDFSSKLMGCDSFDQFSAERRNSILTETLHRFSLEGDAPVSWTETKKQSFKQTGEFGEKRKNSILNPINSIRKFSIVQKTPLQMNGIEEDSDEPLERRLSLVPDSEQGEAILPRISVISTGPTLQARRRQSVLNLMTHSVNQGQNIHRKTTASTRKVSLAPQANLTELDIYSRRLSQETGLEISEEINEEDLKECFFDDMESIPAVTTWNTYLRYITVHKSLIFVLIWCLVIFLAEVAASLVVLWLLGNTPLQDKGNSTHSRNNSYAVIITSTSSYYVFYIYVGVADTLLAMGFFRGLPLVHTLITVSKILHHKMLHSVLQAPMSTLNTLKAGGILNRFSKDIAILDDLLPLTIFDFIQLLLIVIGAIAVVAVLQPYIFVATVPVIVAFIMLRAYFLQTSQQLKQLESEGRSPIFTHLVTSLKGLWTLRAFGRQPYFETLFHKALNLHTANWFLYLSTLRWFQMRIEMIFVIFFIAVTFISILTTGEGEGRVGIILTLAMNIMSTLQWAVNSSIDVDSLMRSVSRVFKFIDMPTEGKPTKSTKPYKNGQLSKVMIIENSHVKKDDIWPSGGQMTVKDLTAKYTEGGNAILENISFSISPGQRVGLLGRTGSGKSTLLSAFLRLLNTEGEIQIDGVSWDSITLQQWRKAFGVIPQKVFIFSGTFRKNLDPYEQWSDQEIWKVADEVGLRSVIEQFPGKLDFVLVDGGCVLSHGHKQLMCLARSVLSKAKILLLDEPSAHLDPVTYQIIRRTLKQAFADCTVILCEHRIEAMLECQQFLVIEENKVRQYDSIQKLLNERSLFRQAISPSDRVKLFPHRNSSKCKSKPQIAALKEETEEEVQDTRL

`CC1(C)C(O)C1C#Cc1ccccc1` (centres unmarked) [compound 598689]: the IC50 at hTMEM16A (abc) was 466 ± 101 nM.

As for `O=C(Nc1c(Cl)cccc1Cl)c1cc(Cl)ccc1O` [Cpd 15], in test [1], the IC50 was over 12000 nM.

For the compound `O=C(Nc1c(F)cccc1F)c1cc(Cl)ccc1O` [Cpd 18], the IC50 was 13400 nM at hTMEM16A (abc) and over 12000 nM in test [1].

`O=C(Nc1ccccc1C(=O)Nc1nnc(C(F)(F)F)s1)c1ccccc1Cl` [CID# 2806957]: the IC50 on TMEM16A (acd) is 670 nM.

Regarding `CCCn1c(SCC(=O)NCC(F)(F)F)nc2ccccc2c1=O` [compound 2100101], at hTMEM16A (abc), the IC50 came out at 3330 nM.

With `O=C(Nc1cccc(Cl)c1)c1cc(Cl)ccc1O` [Cpd 10], the figures for the IC50 (on hTMEM16A (abc); in test [1]) were 90 nM and 1650 nM, respectively. Besides, in test [2], the “IC50 Ratio, Wnt/TMEM16A” value was found to be 18.33.

As to `Cc1ccc(-c2nnn(CC(=O)N(c3cccc(C(F)(F)F)c3)C(C(=O)NC(C)(C)C)c3cccs3)n2)cc1` (centres unmarked) [compound 3179204], the IC50 at hTMEM16A (abc) stood at 334 nM.

A word on the EC50: it is the concentration giving half of the maximal effect. Regarding `CC(C)(C)NCC(O)c1ccc(O)c(CO)c1` (centres unmarked) [Salbutamol, salbutamol], the EC50 in the test with human bronchial rings (Homo sapiens, 10 μM histamine, read-out: EC50 bronchodilating histamine precontracted human airways) amounted to 119 nM. Moreover, the “time to open airways” value in the test with human bronchial rings (summary) is recorded as under 7 min.

Take `NCCNCCNC(=O)c1cc2ccccc2cc1O` [compound 111758]: the IC50 at hTMEM16A (abc) was determined as 91 ± 28 nM.

CFTRinh-172: the “effect on CFTR chloride current” value at human CFTR is on record as “fully inhibited”.
